Read-outs that look alike come from different tables or passages of the source.
Assays:
Assay type in all cases: cell-based
[1] = tested on: human platelets (arachidonic acid-induced serotonin secretion); test: inhibition of arachidonic acid-induced serotonin secretion, human platelet-rich plasma; details: arachidonic acid 100-300 μM
Method: (§1) The antiaggregatory and antisecretory activity on human platelets was determined by evaluating the in vitro aggregation and [^14 C]serotonin secretion in human platelet preparations. Blood was taken by venipuncture from normal human volunteers who were reported to be free of medication for at least 10 days before blood drawing. Venous blood samples were mixed with acid-citrate dextrose solution (9:1) and centrifuged at 120×g for 15 minutes at room temperature to obtain platelet-rich plasma, PRP, (Huzoor-Akbar et al., Biochem. Pharmacol., 30: 2013-2020, 1981). The PRP was transferred to polypropylene tubes and stored under an atmosphere of 8% CO2. The remaining blood was centrifuged at 1000×g for 10 minutes to obtain platelet-poor plasma. […] Platelet counts varied between 280,000 to 320,000 per cmm or were adjusted to 300,000 per cmm for the aggregation and secretion experiments. All studies were conducted within 2 hours after PRP recovery.
(§2) For aggregation studies, 0.5 ml of PRP was incubated with drug or vehicle (1-5 μl) for 1 minute at 37° C. before the initiation of aggregation with inducers. […] In all experiments, the minimum concentration of inducer (adenosine diphosphate ADP; epinephrine, E; 15S-hydroxy-11α,9α-epoxymethanoprosta-5Z,13E-dienoic acid, U46619; collagen; and arachidonic acid, AA) which caused maximal irreversible aggregation within each PRP preparation was used. Aggregation was monitored for 4 to 6 minutes after the addition of an inducer and data were presented as a percentage inhibition of either slope or maximal light transmittance changes in the presence of varying drug concentrations.
(§3) Secretion data were calculated as the net increase of serotonin released into the supernatant by each inducer and expressed as a percentage of the total radioactivity in platelets Mayo et al., Biochem. Pharmacol., 30: 2237-2241, 1981. The effect of compounds on serotonin release was expressed as the percentage of inhibition of the maximum release by each inducer and plotted against the log molar concentrations of each agent.

[2] = tested on: human platelets (ADP-induced serotonin secretion); test: inhibition of ADP-induced serotonin secretion, human platelet-rich plasma; details: ADP 1-3 μM
Method: as §1, §2, §3

[3] = tested on: human platelets (collagen-induced aggregation); test: inhibition of collagen-induced platelet aggregation, human platelet-rich plasma; details: collagen 10-100 μg/ml
Method: as §1, §2

human platelets = test: human platelet aggregation and serotonin release, inducers taken together; details: for inhibition of aggregation and serotonin release: each inducer
Method: as §1, §2, §3

[4] = tested on: human platelets (epinephrine-induced aggregation); test: inhibition of the secondary phase of epinephrine-induced platelet aggregation, human platelet-rich plasma; details: epinephrine 1-10 μM
Method: as §1, §2

[5] = tested on: human platelets (ADP-induced aggregation); test: inhibition of the secondary phase of ADP-induced platelet aggregation, human platelet-rich plasma; details: ADP 1-3 μM
Method: as §1, §2

[6] = tested on: human platelets (arachidonic acid-induced aggregation); test: inhibition of arachidonic acid-induced platelet aggregation, human platelet-rich plasma; details: arachidonic acid 100-300 μM
Method: as §1, §2

[7] = tested on: human platelets (epinephrine-induced serotonin secretion); test: inhibition of epinephrine-induced serotonin secretion, human platelet-rich plasma; details: epinephrine 1-10 μM
Method: as §1, §2, §3

[8] = tested on: human platelets (collagen-induced serotonin secretion); test: inhibition of collagen-induced serotonin secretion, human platelet-rich plasma; details: collagen 10-100 μg/ml
Method: as §1, §2, §3

[9] = tested on: human platelets (U46619-induced serotonin secretion); test: inhibition of U46619-induced serotonin secretion in presence of aspirin, human platelet-rich plasma; details: U46619 0.5-1.5 μM, aspirin 1 mM
Method: as §1, §2, §3

[10] = read-out: IC50 serotonin secretion
[11] = read-out: pIC50 serotonin secretion (converted)
[12] = read-out: IC50 platelet aggregation
[13] = read-out: pIC50 platelet aggregation (converted)
[14] = read-out: IC50 platelet aggregation (secondary phase)
[15] = read-out: pIC50 platelet aggregation (secondary phase) (converted)

SMILES	IC50 [1, 10] [µM]	IC50 [1, 11] [µM]	IC50 [2, 10] [µM]	IC50 [2, 11] [µM]	IC50 [3, 12] [µM]	IC50 [3, 13] [µM]	inhibition of aggregation and serotonin release (human platelets)	IC50 [4, 14] [µM]	IC50 [4, 15] [µM]	IC50 [5, 14] [µM]	IC50 [5, 15] [µM]	IC50 [6, 12] [µM]	IC50 [6, 13] [µM]	IC50 [7, 10] [µM]	IC50 [7, 11] [µM]	IC50 [8, 10] [µM]	IC50 [8, 11] [µM]	IC50 [9, 10] [µM]	IC50 [9, 11] [µM]	potency relative to 2 as an inhibitor of human platelet activation (human platelets; relative to analog 2)
COc1cc(CC2NCCc3c2cc(O)c(O)c3F)cc(OC)c1OC (stereo not drawn) [Compound 5-F-TMQ, 5-fluoro-trimetoquinol]	55	55	17	17	51.3	51.3	inhibitors of aggregation and serotonin release by each inducer	14.8	14.8	15.1	15.1	77.5	77.6	7.4	7.59	13.2	13.2	6.9	6.92	–
COc1cc(CC2NCCc3cc(O)c(O)c(F)c32)cc(OC)c1OC (stereo not drawn) [Compound 8-F-TMQ, 8-fluoro-trimetoquinol]	21.9	21.9	6.6	6.61	9.8	9.77	inhibitors of aggregation and serotonin release by each inducer	11	11	6.5	6.46	26.2	26.3	3.5	3.47	7.6	7.59	4.4	4.37	about 2 fold

Reference: patent US4737504A, “5-fluoro-and 8-fluoro-trimetoquinol compounds and the processes for their preparation” (priority 1986, dated 1988)
